Experimental data: the NIST ThermoML archive (doi:10.1016/j.jct.2006.01.008)

Test: mn = molality of the nth substance listed, in mol/kg
Settings: Liquid

O=[N+]([O-])[O-].[Li+] [lithium nitrate] + CO
Settings | mass density [kg/m3]
298.15 K, 124 kPa, m1 = 0.1551 | 794.38
298.15 K, 125 kPa, m1 = 0.2943 | 800.98
298.15 K, 254 kPa, m1 = 0.8904 | 826.51
298.15 K, 4856 kPa, m1 = 0.1551 | 798.86
298.15 K, 5035 kPa, m1 = 0.2943 | 805.54
298.15 K, 5745 kPa, m1 = 0.8904 | 831.27
298.15 K, 10235 kPa, m1 = 0.2943 | 810.19
298.15 K, 10235 kPa, m1 = 0.8904 | 835.02
298.15 K, 11542 kPa, m1 = 0.1551 | 804.92
298.15 K, 15247 kPa, m1 = 0.2943 | 814.48
298.15 K, 15625 kPa, m1 = 0.8904 | 839.35
298.15 K, 16024 kPa, m1 = 0.1551 | 808.79
298.15 K, 19745 kPa, m1 = 0.1551 | 811.89
298.15 K, 20056 kPa, m1 = 0.2943 | 818.43
298.15 K, 20856 kPa, m1 = 0.8904 | 843.37
298.15 K, 25158 kPa, m1 = 0.2943 | 822.44
298.15 K, 25656 kPa, m1 = 0.8904 | 846.91
298.15 K, 25856 kPa, m1 = 0.1551 | 816.76
298.15 K, 30142 kPa, m1 = 0.1551 | 820.02
298.15 K, 30235 kPa, m1 = 0.2943 | 826.24
298.15 K, 30254 kPa, m1 = 0.8904 | 850.16
298.15 K, 35626 kPa, m1 = 0.8904 | 853.78
298.15 K, 35751 kPa, m1 = 0.2943 | 830.16
298.15 K, 35785 kPa, m1 = 0.1551 | 824.09
298.15 K, 39875 kPa, m1 = 0.2943 | 832.95
298.15 K, 39897 kPa, m1 = 0.1551 | 826.91
298.15 K, 39957 kPa, m1 = 0.8904 | 856.57
298.27 K, 205 kPa, m1 = 3.614 | 928.48
298.27 K, 5001 kPa, m1 = 3.614 | 931.92
298.27 K, 10011 kPa, m1 = 3.614 | 935.38
298.27 K, 15005 kPa, m1 = 3.614 | 938.69
298.27 K, 19984 kPa, m1 = 3.614 | 941.89
298.27 K, 25008 kPa, m1 = 3.614 | 945.02
298.27 K, 30003 kPa, m1 = 3.614 | 948.03
298.27 K, 35001 kPa, m1 = 3.614 | 950.96
298.27 K, 40010 kPa, m1 = 3.614 | 953.79
298.28 K, 189 kPa, m1 = 1.803 | 863.5
298.28 K, 205 kPa, m1 = 0.5393 | 811.38
298.28 K, 4985 kPa, m1 = 0.5393 | 815.76
298.28 K, 4986 kPa, m1 = 1.803 | 867.42
298.28 K, 9983 kPa, m1 = 1.803 | 871.31
298.28 K, 9995 kPa, m1 = 0.5393 | 820.13
298.28 K, 14986 kPa, m1 = 1.803 | 875.06
298.28 K, 15005 kPa, m1 = 0.5393 | 824.3
298.28 K, 19989 kPa, m1 = 1.803 | 878.65
298.28 K, 19996 kPa, m1 = 0.5393 | 828.26
298.28 K, 24989 kPa, m1 = 1.803 | 882.11
298.28 K, 24994 kPa, m1 = 0.5393 | 832.06
298.28 K, 29989 kPa, m1 = 1.803 | 885.44
298.28 K, 29991 kPa, m1 = 0.5393 | 835.71
298.28 K, 34990 kPa, m1 = 1.803 | 888.67
298.28 K, 34996 kPa, m1 = 0.5393 | 839.23
298.28 K, 39995 kPa, m1 = 0.5393 | 842.62
298.28 K, 39997 kPa, m1 = 1.803 | 891.8
323.15 K, 215 kPa, m1 = 0.8904 | 804.21
323.15 K, 321 kPa, m1 = 0.2943 | 777.56
323.15 K, 412 kPa, m1 = 0.1551 | 770.76
323.15 K, 5026 kPa, m1 = 0.8904 | 809.05
323.15 K, 5087 kPa, m1 = 0.2943 | 782.63
323.15 K, 5784 kPa, m1 = 0.1551 | 776.58
323.15 K, 9859 kPa, m1 = 0.1551 | 780.81
323.15 K, 10214 kPa, m1 = 0.8904 | 814.03
323.15 K, 10862 kPa, m1 = 0.2943 | 788.49
323.15 K, 15038 kPa, m1 = 0.2943 | 792.54
323.15 K, 15864 kPa, m1 = 0.8904 | 819.19
323.15 K, 16173 kPa, m1 = 0.1551 | 787.05
323.15 K, 19786 kPa, m1 = 0.1551 | 790.45
323.15 K, 20247 kPa, m1 = 0.8904 | 823
323.15 K, 20742 kPa, m1 = 0.2943 | 797.81
323.15 K, 25168 kPa, m1 = 0.2943 | 801.7
323.15 K, 25632 kPa, m1 = 0.8904 | 827.45
323.15 K, 26297 kPa, m1 = 0.1551 | 796.26
323.15 K, 30058 kPa, m1 = 0.8904 | 830.92
323.15 K, 30685 kPa, m1 = 0.2943 | 806.29
323.15 K, 31035 kPa, m1 = 0.1551 | 800.23
323.15 K, 35027 kPa, m1 = 0.2943 | 809.7
323.15 K, 35214 kPa, m1 = 0.8904 | 834.74
323.15 K, 35748 kPa, m1 = 0.1551 | 803.97
323.15 K, 39867 kPa, m1 = 0.1551 | 807.06
323.15 K, 39867 kPa, m1 = 0.8904 | 837.98
323.15 K, 40002 kPa, m1 = 0.2943 | 813.4
323.23 K, 206 kPa, m1 = 3.614 | 908.05
323.23 K, 211 kPa, m1 = 0.5393 | 788.49
323.23 K, 234 kPa, m1 = 1.803 | 842.01
323.23 K, 4982 kPa, m1 = 3.614 | 911.88
323.23 K, 4988 kPa, m1 = 1.803 | 846.4
323.23 K, 4989 kPa, m1 = 0.5393 | 793.5
323.23 K, 9987 kPa, m1 = 3.614 | 915.71
323.23 K, 9991 kPa, m1 = 0.5393 | 798.45
323.23 K, 10005 kPa, m1 = 1.803 | 850.8
323.23 K, 14993 kPa, m1 = 3.614 | 919.41
323.23 K, 14999 kPa, m1 = 0.5393 | 803.13
323.23 K, 15005 kPa, m1 = 1.803 | 854.96
323.23 K, 19987 kPa, m1 = 3.614 | 922.95
323.23 K, 19992 kPa, m1 = 1.803 | 858.94
323.23 K, 19999 kPa, m1 = 0.5393 | 807.57
323.23 K, 24991 kPa, m1 = 3.614 | 926.36
323.23 K, 24995 kPa, m1 = 1.803 | 862.77
323.23 K, 24997 kPa, m1 = 0.5393 | 811.8
323.23 K, 29993 kPa, m1 = 0.5393 | 815.84
323.23 K, 29998 kPa, m1 = 3.614 | 929.67
323.23 K, 30014 kPa, m1 = 1.803 | 866.46
323.23 K, 34988 kPa, m1 = 0.5393 | 819.71
323.23 K, 34989 kPa, m1 = 3.614 | 932.86
323.23 K, 34999 kPa, m1 = 1.803 | 869.98
323.23 K, 39993 kPa, m1 = 3.614 | 935.96
323.23 K, 39995 kPa, m1 = 0.5393 | 823.45
323.23 K, 39997 kPa, m1 = 1.803 | 873.39
348.15 K, 381 kPa, m1 = 0.1551 | 746.07
348.15 K, 409 kPa, m1 = 0.8904 | 781.31
348.15 K, 425 kPa, m1 = 0.2943 | 753.31
348.15 K, 5068 kPa, m1 = 0.1551 | 751.95
348.15 K, 5124 kPa, m1 = 0.2943 | 759.07
348.15 K, 5124 kPa, m1 = 0.8904 | 786.59
348.15 K, 10572 kPa, m1 = 0.2943 | 765.41
348.15 K, 10865 kPa, m1 = 0.8904 | 792.73
348.15 K, 10875 kPa, m1 = 0.1551 | 758.86
348.15 K, 15038 kPa, m1 = 0.1551 | 763.56
348.15 K, 15324 kPa, m1 = 0.2943 | 770.66
348.15 K, 15326 kPa, m1 = 0.8904 | 797.27
348.15 K, 19875 kPa, m1 = 0.1551 | 768.75
348.15 K, 20125 kPa, m1 = 0.2943 | 775.7
348.15 K, 20875 kPa, m1 = 0.8904 | 802.64
348.15 K, 25412 kPa, m1 = 0.8904 | 806.8
348.15 K, 25632 kPa, m1 = 0.2943 | 781.14
348.15 K, 26038 kPa, m1 = 0.1551 | 774.93
348.15 K, 30057 kPa, m1 = 0.2943 | 785.25
348.15 K, 30587 kPa, m1 = 0.8904 | 811.29
348.15 K, 31412 kPa, m1 = 0.1551 | 779.95
348.15 K, 35231 kPa, m1 = 0.8904 | 815.1
348.15 K, 35748 kPa, m1 = 0.1551 | 783.73
348.15 K, 35942 kPa, m1 = 0.2943 | 790.36
348.15 K, 39511 kPa, m1 = 0.2943 | 793.25
348.15 K, 39784 kPa, m1 = 0.1551 | 787.04
348.15 K, 40005 kPa, m1 = 0.8904 | 818.78
